Entries after “also recorded” stand apart in the source; their conditions may differ.
Key:
[1] = molecular target: T1, deoxyHbS oligomers (HbS-rhodamine red / HbS-Cy5) (Homo sapiens, UniProt P68871+P69905, E7V); experiment: Fluorescence lifetime (FLT) FRET assay of deoxyHbS oligomerization (LOPAC screen and dose response); assay type: biochemical
T1 construct: purchased Sigma
Method: Development of HTS platform for identification of small molecules that inhibit in vitro HbS nucleation: Sickle hemoglobin (HbS) (sigma) was labeled with either fluorescent donor (rhodamine red) or acceptor (Cy5) dyes (Thermo fisher scientific) via a cysteine thiol group. For labeling, lyophilized HbS (10 mg/ml) was dissolved in PBS (Sigma) and then centrifuged at 13000 g for five minutes at 4° C. to remove the debris. After centrifugation protein sample was incubated with TCEP (0.5-1 mM) for 20 minutes at room temperature to reduce the cysteine side-chain. This protein mixture was incubated with 1.5 mM dye (dissolved in DMSO or water) for two hours in the dark at room temperature or overnight at 4° C. Unreacted free dye was removed by dialysis against PBS. The degree of labeling was calculated by comparing the absorption of the fluorophore conjugated hemoglobin at 280 nm to the absorbance of the dye at its maximum wavelength. The dye concentration was measured by absorbance, using extinction coefficients of 250,000 M −1 cm -1 for Cy5 conjugates and 88000 M −1 cm -1 for Rhodamine Red conjugates.
High-Throughput Screening of LOPAC Library to Identify Compounds That Inhibit HbS Oligomerization Under Deoxy Condition: The LOPAC compounds (Thermo Fisher Scientific) were received in 96-well plates. Assay plates were prepared by transferring 5 nL of the 10 mM compound stocks or DMSO from the source plates to 1536-well black polypropylene plates (Greiner), using an Echo 550 acoustic dispenser (Labcyte). During screening, donor sample (HbS/Rhodamine Red) was mixed with acceptor (HbS/Cy5) at 1:5 ratios. Then protein samples were dispensed (5 μL, 25 μM) by a Multidrop Combi Reagent Dispenser (Thermo Fisher Scientific) into the 1536-well assay plates containing the compounds and incubated at room temperature for two hours. After incubation, protein samples were degassed for 10-15 minutes using vacuum argon degassing method. Lifetime measurements were taken by the fluorescence lifetime plate reader (Fluorescence Innovations, Inc).
Fluorescence Data Acquisition: We tested the functionality of the HbS FRET pair by measuring lifetimes of oxy-and deoxy HbA and HbS using a fluorescence lifetime plate reader (FIG. 3A). Lifetimes are reciprocally related to FRET, so a decrease in lifetime corresponds to an increase in FRET. Donor fluorescence was excited with a 532 nm laser (Teem Photonics SNG-20F-100, Meylan, France), delivering pulses of -0.3 μJ energy at a 20 kHz repetition rate, and emission was filtered with 546 nm long pass and 586/20 nm band pass filters. This filter was selected to exclude acceptor fluorescence, as only the lifetime of the donor fluorescent protein is required to calculate FRET (Equation (1)). The photomultiplier tube (PMT) voltage was adjusted so that the peak signals of the instrument response function (IRF) and FRET biosensor were similar.
High-Throughput Screening Data Analysis: Time resolve-fluorescence waveforms for each well were fitted with single-exponential decays using least-squares minimization global analysis software (Petersen et al., F2014, Rev Sci Instrum 85, 113101). FRET efficiency (E) was determined as the fractional decrease of donor lifetime (T_D ), due to the presence of acceptor fluorophore (T_DA) using equation 1: […]
These drug compounds were dissolved in DMSO to make 20 mM stock solution. Hits were screened at seven different concentrations. Protein samples were dispensed into the 96-well assay plates and incubated with hit compounds at room temperature for two hours. After incubation, protein samples were degassed for 10 minutes using vacuum argon degassing method. Lifetime measurements were taken by the fluorescence lifetime plate reader (Fluorescence Innovations, Inc).

[2] = molecular target: deoxy-HbS oligomers (sickle hemoglobin, HbS) (Homo sapiens, UniProt P68871+P69905, E7V); experiment: Dynamic light scattering (DLS) of deoxy-HbS oligomers at sub-nucleating concentration; assay type: biochemical; conditions: HbS 25 μM, hit compounds 100 μM, two hours at room temperature, degassed with argon; FIG. 4C
Method: (FIG. 4A) Pilot screening with LOPAC library. Compounds that reduced the FRET efficiency below 3SD (black line) were selected for further characterization. […] Fluorescently labeled HbS samples were plated in a 1536 plate and treated separately with DMSO or the three hit compounds, chlormezanone, gabazine, and phosphoramidon disodium, in a dose-dependent manner from 0.1 to 1000 μM for 2 hours at room temperature and then vacuum degassed for 10 minutes, and then donor lifetimes were measured using a fluorescence plate reader. […] HbS samples (25 μM) were incubated separately with hit compounds (100 μM) or DMSO only for two hours at room temperature and degassed with argon for five minutes, and then DLS measurement were taken at room temperature. […] Effect of hit compounds on polymerization of deoxyHbS in high potassium phosphate buffer. Curves represent growth of polymer as a function of time in the presence or absence of drug.

Structure (SMILES)	FRET efficiency of HbS under deoxy conditions ([1]; known polymerization inhibitors as controls, FIG. 1D)	size of deoxyHbS oligomers (DLS effective diameter) relative to control [2]	FRET efficiency in dose response ([1]; 0.1 to 1000 μM, 2 hours at room temperature, then degassed, FIG. 4B)
N[C@@H](Cc1ccccc1)C(=O)O [phenylalanine]	decreased the FRET efficiency; also recorded: reduced FRET efficiency		
CC(C)C[C@H](NP(=O)(O)O[C@@H]1O[C@@H](C)[C@H](O)[C@@H](O)[C@H]1O)C(=O)N[C@@H](Cc1c[nH]c2ccccc12)C(=O)O [phosphoramidon disodium]		significantly decreased the oligomer size	decreased FRET efficiency in a dose-dependent manner
